Target: Inosine-5'-monophosphate dehydrogenase (IMPDH) (Homo sapiens, UniProt P20839+P12268)
Assay: Inhibitory activity against (IMPDH) inosine 5'-monophosphate dehydrogenase
Format: protein assay

SMILES	IC50 [µM]
CC(C)(C)NC(=O)C(=O)Nc1ccc(-c2cnco2)c(Cl)c1	0.18
COc1cc(NC(=O)C(=O)NC(C)(C)C)ccc1-c1cnco1	0.04
CC(C)(C)NC(=O)C(=O)Nc1ccc(-c2cnco2)cc1	20
Cc1ncoc1-c1ccc(NC(=O)C(=O)NC(C)(C)C)cc1	14
N#Cc1ccc2[nH]ccc2c1	99
COc1ccc2[nH]cc(C(=O)CSc3ccncc3)c2c1	32
CCCCc1ncoc1-c1ccc(NC(=O)C(=O)NC(C)(C)C)cc1OC	27
COc1ccc(NC(=O)C(=O)NC(C)(C)C)cc1-c1cnco1	16
COc1cc(NC(=O)C(=O)NC(C)(C)C)ccc1-c1ccc[nH]1	2.4
COc1cc(NC(=O)C(=O)NC(C)(C)C)ccc1-c1nc[nH]n1	15
COc1ccc(C#N)c2ccccc12	31
CCOc1cc(NC(=O)C(=O)NC(C)(C)C)ccc1-c1cnco1	1.3
Nc1ccnc2cc(Cl)ccc12	168
COc1ccc(NC(=O)C(=O)NC(C)(C)C)cc1OC	21
COc1cc(NC(=O)C(=O)NC(C)(C)C)ccc1-c1ocnc1Cc1ccccc1	35
CC(C)(C)NC(=O)C(=O)Nc1ccc(-c2cnco2)c(F)c1	0.73
COc1cc(NC(=O)C(=O)NC(C)(C)C)ccc1-c1ocnc1C	0.43
COc1cc(NC(=O)C(=O)NC(C)(C)C)ccc1-c1ccco1	8.1
COc1cc(N)ccc1-c1cnco1	19
Cc1cc2c(cc1C)C(=O)C(C#N)CO2 (centres undefined)	88
COc1cc(NC(=O)C(=O)NC(C)(C)C)ccc1-c1cocn1	0.47
Oc1cccc2[nH]c3ccccc3c12	54
N#Cc1c[nH]c2ccccc12	32
CC(C)(C)NC(=O)C(=O)Nc1ccc(-c2cnco2)c(O)c1	4.4
CC(C)(C)NC(=O)C(=O)Nc1ccc(-c2cnco2)c(C(F)(F)F)c1	18
CC(=O)c1ccc(O)cc1C	620
CCc1cc(NC(=O)C(=O)NC(C)(C)C)ccc1-c1cnco1	1.2
Cc1cc(NC(=O)C(=O)NC(C)(C)C)ccc1-c1cnco1	0.2
COc1cc(NC(=O)C(=O)NC(C)(C)C)ccc1-c1cncs1	0.91

— ChEMBL document CHEMBL1136381, “Discovery of novel low molecular weight inhibitors of IMPDH via virtual needle screening” (Bioorg Med Chem Lett, 2003)
